This is an account of results in patent EP4722209A1 (Beijing Shenogen Pharma Group, priority 2023, dated 2024).

In this test the target is T1, ERα (Homo sapiens, UniProt P03372).
T1 construct: host or cells: MCF-7
T1 sequence (P03372 1-595): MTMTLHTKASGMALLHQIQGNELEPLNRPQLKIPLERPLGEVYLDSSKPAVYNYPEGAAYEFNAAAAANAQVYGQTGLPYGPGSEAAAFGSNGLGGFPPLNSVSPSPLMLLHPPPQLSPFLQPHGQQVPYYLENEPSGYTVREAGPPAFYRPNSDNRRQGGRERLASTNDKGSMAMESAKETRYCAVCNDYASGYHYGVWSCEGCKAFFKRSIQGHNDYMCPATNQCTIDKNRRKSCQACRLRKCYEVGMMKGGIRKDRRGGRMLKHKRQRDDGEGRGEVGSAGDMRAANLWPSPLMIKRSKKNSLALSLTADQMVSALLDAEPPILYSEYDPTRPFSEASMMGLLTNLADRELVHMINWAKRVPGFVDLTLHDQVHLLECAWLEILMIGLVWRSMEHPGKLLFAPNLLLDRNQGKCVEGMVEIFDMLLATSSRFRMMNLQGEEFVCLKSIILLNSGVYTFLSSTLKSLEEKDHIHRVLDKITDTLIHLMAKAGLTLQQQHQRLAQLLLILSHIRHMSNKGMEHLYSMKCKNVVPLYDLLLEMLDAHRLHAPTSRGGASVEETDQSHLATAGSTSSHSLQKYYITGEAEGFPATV
The test can be described thus: ER degradation activity in MCF-7 cells (Western blot, grayscale intensity). The settings on record: 6 hours treatment, 1 nM to 100 nM, concentration required to degrade 50% of the target protein. The test is classed as cell-based. Put shortly: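 MCF-7 cells were treated 24 h after seeding with test compounds at 1 nM to 100 nM final (0.2% DMSO) for 6 h at 37 °C. ERα in lysates (30 µg protein) was detected by Western blot with ECL; degradation was quantified from band grayscale intensity and DC50 derived.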
Background: A western blot detects proteins with antibodies after separation by electrophoresis.

Some results are limits rather than exact numbers.

Broadly, the DC50 is the concentration giving 50% degradation. A lower DC50 goes with a more potent degrader. With `CC1(C)CC(=C(c2ccc(N3CCC(CN4CCN(c5ccc6c(c5)CN(C5CCC(=O)NC5=O)C6=O)CC4)CC3)nc2)c2ccc3c(F)n[nH]c3c2)CC(C)(C)O1` (centres unmarked) [Compound 112], the DC50 lay in the range of 10 to 100 nM. The value for `CC1(C)CC(=C(c2ccc(N3CCC(CN4CCN(c5ccc6c(c5)CN(C5CCC(=O)NC5=O)C6=O)CC4)CC3)nc2)c2ccc3cncn3c2)CC(C)(C)O1` (centres unmarked) [Compound 113] was above 100 nM; that for `CC1(C)CC(=C(c2ccc(N3CCC(CN4CCN(c5ccc6c(c5)CN(C5CCC(=O)NC5=O)C6=O)CC4)CC3)nc2)c2cccc(O)c2)CC(C)(C)O1` (centres unmarked) [Compound 114] was 10 to 100 nM; that for `CC1(C)CC(=C(c2ccc(N3CCC(CN4CCN(c5ccc(NC6CCC(=O)NC6=O)c(F)c5)CC4)CC3)cc2)c2ccc3[nH]nc(F)c3c2)CC(C)(C)O1` (centres unmarked) [Compound 115] was above 100 nM.

`CC1(C)CC(=C(c2ccc(N)nc2)c2ccc(N3CCC(CN4CCN(c5ccc6c(c5)CN(C5CCC(=O)NC5=O)C6=O)CC4)CC3)nc2)CC(C)(C)O1` (centres unmarked) [Compound 116] displayed a DC50 above 100 nM. The value for `CC1(C)CC(=C(c2ccc(N3CCC(CN4CCN(c5ccc6c(c5)C(=O)N(C5CCC(=O)NC5=O)C6)CC4)CC3)nc2)c2ccc3[nH]nc(F)c3c2)CC(C)(C)O1` (centres unmarked) [Compound 118] was above 100 nM; that for `CC1(C)CC(=C(c2ccc(N3CCC(CN4CCN(c5ccc(C(=O)N[C@H]6CCC(=O)NC6=O)c(F)c5)CC4)CC3)nc2)c2ccc3[nH]nc(F)c3c2)CC(C)(C)O1` [Compound 122] was below 10 nM. The value for `CC1(C)CC(=C(c2ccc(N3CCC4(CC3)CC(N3CCN(c5ccc(C(=O)N[C@H]6CCC(=O)NC6=O)c(F)c5)CC3)C4)nc2)c2ccc3[nH]nc(F)c3c2)CC(C)(C)O1` [Compound 123] was 10 to 100 nM; that for `Cn1nc(N2CCC(=O)NC2=O)c2cc(F)c(N3CCN(CC4CCN(c5ccc(C(=C6CC(C)(C)OC(C)(C)C6)c6ccc7[nH]nc(F)c7c6)cn5)CC4)CC3)cc21` [Compound 124] was 10 to 100 nM; that for `Cn1nc(N2CCC(=O)NC2=O)c2cc(F)c(N3CCN(C4CC5(CCN(c6ccc(C(=C7CC(C)(C)OC(C)(C)C7)c7ccc8[nH]nc(F)c8c7)cn6)CC5)C4)CC3)cc21` [Compound 125] was below 10 nM. Next, `CC1(C)CC(=C(c2ccc(N3CCC(CN4CCN(c5ccc(C(=O)N[C@H]6CCC(=O)NC6=O)cc5)CC4)CC3)nc2)c2ccc3[nH]nc(F)c3c2)CC(C)(C)O1` [Compound 126]: below 10 nM. `CC1(C)CC(=C(c2ccc(N3CCC4(CC3)CC(N3CCN(c5ccc(C(=O)N[C@H]6CCC(=O)NC6=O)cc5)CC3)C4)nc2)c2ccc3[nH]nc(F)c3c2)CC(C)(C)O1` [Compound 127] came in with a DC50 below 10 nM. In turn, `CC1(C)CC(=C(c2ccc(N3CCC(CN4CCN(c5ccc(C(=O)N[C@H]6CCC(=O)NC6=O)nc5)CC4)CC3)nc2)c2ccc3[nH]nc(F)c3c2)CC(C)(C)O1` [Compound 128] returned a DC50 of 10 to 100 nM. `CC1(C)CC(=C(c2ccc(N3CCC4(CC3)CC(N3CCN(c5ccc(C(=O)N[C@H]6CCC(=O)NC6=O)nc5)CC3)C4)nc2)c2ccc3[nH]nc(F)c3c2)CC(C)(C)O1` [Compound 129] had a DC50 of 10 to 100 nM.

In the case of `CC1(C)CC(=C(c2ccc(N3CCC(CN4CCN(c5ccc6c(c5)C(=O)N([C@@H]5CCC(=O)NC5=O)C6=O)CC4)CC3)cc2)c2ccc3[nH]ncc3c2)CC(C)(C)O1` [Compound 130], the DC50 was below 10 nM. As to `CC1(C)CC(=C(c2ccc(N3CCC(CN4CCN(c5ccc6c(c5)C(=O)N([C@H]5CCC(=O)NC5=O)C6=O)CC4)CC3)cc2)c2ccc3[nH]ncc3c2)CC(C)(C)O1` [Compound 131], the DC50 was below 10 nM.

The compound `CC1(C)CC(=C(c2ccc(N3CCC(N4CCN(c5ccc6c(c5)CN([C@@H]5CCC(=O)NC5=O)C6=O)CC4)CC3)cc2)c2ccc3[nH]nc(F)c3c2)CC(C)(C)O1` [Compound 134] gave a DC50 of 10 to 100 nM. The value for `CC1(C)CC(=C(c2ccc(N3CCC(N4CCN(c5ccc6c(c5)CN([C@H]5CCC(=O)NC5=O)C6=O)CC4)CC3)cc2)c2ccc3[nH]nc(F)c3c2)CC(C)(C)O1` [Compound 135] was 10 to 100 nM; that for `CC1(C)CC(=C(c2ccc(N3CCC(CN4CCN(c5ccc6c(c5)CN([C@@H]5CCC(=O)NC5=O)C6=O)CC4)CC3)nc2)c2ccc3[nH]ncc3c2)CC(C)(C)O1` [Compound 136] was below 10 nM. The compound `CC1(C)CC(=C(c2ccc(N3CCC(CN4CCN(c5ccc6c(c5)CN([C@H]5CCC(=O)NC5=O)C6=O)CC4)CC3)nc2)c2ccc3[nH]ncc3c2)CC(C)(C)O1` [Compound 137] gave a DC50 below 10 nM. The value for `CC1(C)CC(=C(c2ccc(N3CC4(CCN(C5CCN(c6ccc7c(c6)CN([C@@H]6CCC(=O)NC6=O)C7=O)CC5)CC4)C3)nc2)c2ccc3[nH]nc(F)c3c2)CC(C)(C)O1` [Compound 138] was below 10 nM. The value for `CC1(C)CC(=C(c2ccc(N3CC4(CCN(C5CCN(c6ccc7c(c6)CN([C@H]6CCC(=O)NC6=O)C7=O)CC5)CC4)C3)nc2)c2ccc3[nH]nc(F)c3c2)CC(C)(C)O1` [Compound 139] was 10 to 100 nM; that for `CC1(C)CC(=C(c2ccc(N3CCC4(CC3)CN(C3CCN(c5ccc6c(c5)CN([C@@H]5CCC(=O)NC5=O)C6=O)CC3)C4)nc2)c2ccc3[nH]nc(F)c3c2)CC(C)(C)O1` [Compound 140] was below 10 nM. The value for `CC1(C)CC(=C(c2ccc(N3CCC4(CC3)CN(C3CCN(c5ccc6c(c5)CN([C@H]5CCC(=O)NC5=O)C6=O)CC3)C4)nc2)c2ccc3[nH]nc(F)c3c2)CC(C)(C)O1` [Compound 141] was below 10 nM; that for `CC1(C)CC(=C(c2ccc(N3CCC(F)(CNC4CCN(c5ccc6c(c5)CN([C@@H]5CCC(=O)NC5=O)C6=O)CC4)CC3)nc2)c2ccc3[nH]nc(F)c3c2)CC(C)(C)O1` [Compound 142] was below 10 nM. Take `CC1(C)CC(=C(c2ccc(N3CCC(F)(CNC4CCN(c5ccc6c(c5)CN([C@H]5CCC(=O)NC5=O)C6=O)CC4)CC3)nc2)c2ccc3[nH]nc(F)c3c2)CC(C)(C)O1` [Compound 143]: the DC50 fell in the range of 10 to 100 nM.
